For one test, the target named is T1, CDK6 (Homo sapiens, UniProt Q00534).
T1 construct: purchased Invitrogen PR8422B
Nature of the test: In vitro kinase inhibition IC50, luminescence (ADP Glo), retinoblastoma substrate. It counts as biochemical. To be noted: read-out: CDK6/D1 IC50. The procedure, abridged: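 IC50 derived by four-parameter logistic fit of percent inhibition, read as ADP-Glo luminescence. Reactions: 5 nM CDK6, 1 μM retinoblastoma, 25 μM ATP, test compound 0.1–200 nM final, 2 h at room temperature.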
A general note: In ADP-Glo the light output rises with the ADP produced.

For the next test, the target named is T2, CDK4 (Homo sapiens, UniProt P11802).
T2 construct: purchased Invitrogen PR8064A
T2 sequence (P11802 whole entry): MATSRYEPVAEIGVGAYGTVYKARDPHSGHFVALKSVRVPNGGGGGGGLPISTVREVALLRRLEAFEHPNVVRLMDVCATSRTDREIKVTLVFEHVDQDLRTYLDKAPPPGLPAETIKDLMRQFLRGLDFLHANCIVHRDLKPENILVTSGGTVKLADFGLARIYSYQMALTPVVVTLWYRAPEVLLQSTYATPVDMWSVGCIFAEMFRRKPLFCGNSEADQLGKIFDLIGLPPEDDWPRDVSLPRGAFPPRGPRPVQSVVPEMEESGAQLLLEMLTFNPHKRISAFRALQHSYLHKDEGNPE
T2 sequence (P24385 whole entry partner): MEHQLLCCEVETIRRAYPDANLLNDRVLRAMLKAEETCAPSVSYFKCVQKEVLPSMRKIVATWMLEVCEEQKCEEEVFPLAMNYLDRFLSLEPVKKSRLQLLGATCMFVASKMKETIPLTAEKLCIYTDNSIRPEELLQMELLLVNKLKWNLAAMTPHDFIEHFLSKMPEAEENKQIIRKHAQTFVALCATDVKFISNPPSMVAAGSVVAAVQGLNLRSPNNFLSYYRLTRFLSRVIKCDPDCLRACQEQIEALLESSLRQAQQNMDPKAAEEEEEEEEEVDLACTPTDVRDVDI
The test is described as above. It counts as biochemical. To be noted: read-out: CDK4/D1 IC50. The procedure, abridged:
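Inhibition of CDK4 was quantified by ADP Glo luminescence with retinoblastoma as substrate. Reactions held 5 nM kinase, 1 μM retinoblastoma and 25 μM ATP and ran 2H at room temperature. A Synergy Neo reader took signals 15 min and 45 min after detection reagent, and percent inhibition was fitted to a four-parameter logistic model in XLfit to obtain IC50.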

In another test the target is T3, CDK1 (cyclin B) (Homo sapiens, UniProt P06493).
T3 construct: purchased Invitrogen Life Technologies (assay service)
T3 sequence (P06493 whole entry): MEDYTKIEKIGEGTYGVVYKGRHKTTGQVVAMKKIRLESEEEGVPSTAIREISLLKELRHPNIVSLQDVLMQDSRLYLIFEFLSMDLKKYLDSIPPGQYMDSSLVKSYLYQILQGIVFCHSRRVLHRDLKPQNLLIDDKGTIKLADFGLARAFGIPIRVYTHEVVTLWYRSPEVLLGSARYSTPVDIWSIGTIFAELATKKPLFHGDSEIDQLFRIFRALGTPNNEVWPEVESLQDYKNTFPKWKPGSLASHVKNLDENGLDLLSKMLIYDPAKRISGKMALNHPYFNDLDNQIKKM
T3 sequence (P14635 whole entry partner): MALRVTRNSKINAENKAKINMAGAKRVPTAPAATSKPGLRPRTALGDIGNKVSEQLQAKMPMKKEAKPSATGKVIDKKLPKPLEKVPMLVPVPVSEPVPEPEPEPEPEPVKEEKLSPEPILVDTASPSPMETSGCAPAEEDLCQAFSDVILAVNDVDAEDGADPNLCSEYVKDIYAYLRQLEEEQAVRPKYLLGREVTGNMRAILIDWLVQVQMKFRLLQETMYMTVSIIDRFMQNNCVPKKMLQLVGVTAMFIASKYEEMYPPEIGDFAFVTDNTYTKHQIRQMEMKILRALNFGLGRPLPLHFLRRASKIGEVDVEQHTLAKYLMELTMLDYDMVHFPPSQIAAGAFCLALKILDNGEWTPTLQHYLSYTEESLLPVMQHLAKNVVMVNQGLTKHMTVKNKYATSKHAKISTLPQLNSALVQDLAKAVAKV
Nature of the test: Z'-LYTE kinase assay. It counts as biochemical. The procedure: The plates were shaken for 30 seconds, and incubated for 60 minutes at room temperature. […] The plates were read on fluorescence plate reader with Dual emission at 445 nm and 520 nm.
The following equations were used for Z′-LYTE™ Screening Assay Data Analysis.

In test [1] the test system is MCF-7 breast adenocarcinoma cells. Nature of the test: Cancer cell proliferation assay, single agent (cell viability). Conditions: Homo sapiens, MCF7, Table 4; Rb positive; treatment 144 Hr with medium change at 72 Hr; Cell Titer-Glo or resazurin. It is filed as cell-based. In short, it runs like this:
(§1)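 Viability read by resazurin or CellTiter-Glo after 24 h treatment (BT-549) or 144 h with a 72 h medium change (MCF-7, DU4475). Compounds tested at 7–9 concentrations, e.g. 1.1 nM–10 μM, added the day after seeding; IC50 by nonlinear sigmoidal regression.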
A general note: In ATP-based viability assays light output follows the ATP content of the culture.

The subject of test [2] is DU4475 breast carcinoma cells. Described as above. It is filed as cell-based. Conditions: Homo sapiens, DU-4475; Table 4; Rb negative; treatment 144 Hr with medium change at 72 Hr; Cell Titer-Glo or resazurin. The procedure, abridged:
as §1

Another test addresses T4, CDK2 (cyclin A) (Homo sapiens, UniProt P24941).
T4 construct: purchased Invitrogen Life Technologies (assay service)
Nature of the test: Z'-LYTE kinase assay. It counts as biochemical. The procedure:
IC50 values of compounds against CDK2 (cyclin A) were determined by Z′-LYTE™ These screening assays were performed at Invitrogen Life Technologies (Grand Island, N.Y.) on a low volume NBS, black 384-well plate (#4514, Corning). 0.1 μL of 100×test compound in 100% DMSO (at specific solutions) was mixed with 2.4 μL of Kinase Buffer (50 mM HEPES pH 7.5, 0.01% BRIJ-35, 10 mM MgCl2, 1 mM EGTA), 5 μL of 2× Kinase (1.22-10.3 ng CDK2/cyclin A)/Peptide (2 μM Ser/Thr 12), and 2.5 μL of 4×ATP solution (31 μM). The plates were shaken for 30 seconds, and incubated for 60 minutes at room temperature. Development Reagent Solution (5 μL of 1:1024 dilution) was added to the plates followed with another 30-second plate shake and the plates were further incubated at room temperature for one hour. The plates were read on fluorescence plate reader with Dual emission at 445 nm and 520 nm.
The following equations were used for Z′-LYTE™ Screening Assay Data Analysis. Percent inhibition (100-% activity) was fitted to the “four-parameter logistic model” in XLfit for determination of IC50 values.

In the next test the target is T5, PI3Kδ kinase (Homo sapiens, UniProt O00329).
T5 construct: purchased Reaction Biology Corporation (assay service)
T5 sequence (O00329 whole entry): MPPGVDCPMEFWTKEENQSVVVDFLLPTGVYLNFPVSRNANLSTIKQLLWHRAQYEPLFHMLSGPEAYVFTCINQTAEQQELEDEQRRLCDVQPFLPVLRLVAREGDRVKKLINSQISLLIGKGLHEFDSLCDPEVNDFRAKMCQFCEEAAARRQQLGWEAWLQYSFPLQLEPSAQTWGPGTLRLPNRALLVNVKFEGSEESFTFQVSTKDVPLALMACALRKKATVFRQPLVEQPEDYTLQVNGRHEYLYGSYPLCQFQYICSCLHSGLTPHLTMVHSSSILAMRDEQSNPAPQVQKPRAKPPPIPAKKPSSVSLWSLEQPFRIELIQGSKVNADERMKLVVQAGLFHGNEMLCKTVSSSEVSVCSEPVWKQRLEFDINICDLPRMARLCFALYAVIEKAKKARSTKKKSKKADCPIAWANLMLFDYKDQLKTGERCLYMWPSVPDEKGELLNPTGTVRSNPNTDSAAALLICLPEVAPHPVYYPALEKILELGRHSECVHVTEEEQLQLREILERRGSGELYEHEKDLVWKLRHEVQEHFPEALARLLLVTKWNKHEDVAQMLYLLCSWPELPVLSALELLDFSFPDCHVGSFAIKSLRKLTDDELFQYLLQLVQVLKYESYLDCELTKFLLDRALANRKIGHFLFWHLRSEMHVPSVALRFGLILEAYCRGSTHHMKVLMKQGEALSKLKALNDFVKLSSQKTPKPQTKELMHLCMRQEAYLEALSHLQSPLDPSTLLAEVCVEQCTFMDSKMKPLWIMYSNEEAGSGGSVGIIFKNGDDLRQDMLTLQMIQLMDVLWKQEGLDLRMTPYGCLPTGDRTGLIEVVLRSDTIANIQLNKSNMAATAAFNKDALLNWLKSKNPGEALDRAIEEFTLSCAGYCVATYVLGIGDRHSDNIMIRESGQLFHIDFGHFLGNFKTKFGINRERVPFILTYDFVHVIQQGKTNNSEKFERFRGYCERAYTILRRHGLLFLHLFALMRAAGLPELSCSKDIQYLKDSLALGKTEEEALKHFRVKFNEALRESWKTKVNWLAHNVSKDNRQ
T5 sequence (P27986 whole entry partner): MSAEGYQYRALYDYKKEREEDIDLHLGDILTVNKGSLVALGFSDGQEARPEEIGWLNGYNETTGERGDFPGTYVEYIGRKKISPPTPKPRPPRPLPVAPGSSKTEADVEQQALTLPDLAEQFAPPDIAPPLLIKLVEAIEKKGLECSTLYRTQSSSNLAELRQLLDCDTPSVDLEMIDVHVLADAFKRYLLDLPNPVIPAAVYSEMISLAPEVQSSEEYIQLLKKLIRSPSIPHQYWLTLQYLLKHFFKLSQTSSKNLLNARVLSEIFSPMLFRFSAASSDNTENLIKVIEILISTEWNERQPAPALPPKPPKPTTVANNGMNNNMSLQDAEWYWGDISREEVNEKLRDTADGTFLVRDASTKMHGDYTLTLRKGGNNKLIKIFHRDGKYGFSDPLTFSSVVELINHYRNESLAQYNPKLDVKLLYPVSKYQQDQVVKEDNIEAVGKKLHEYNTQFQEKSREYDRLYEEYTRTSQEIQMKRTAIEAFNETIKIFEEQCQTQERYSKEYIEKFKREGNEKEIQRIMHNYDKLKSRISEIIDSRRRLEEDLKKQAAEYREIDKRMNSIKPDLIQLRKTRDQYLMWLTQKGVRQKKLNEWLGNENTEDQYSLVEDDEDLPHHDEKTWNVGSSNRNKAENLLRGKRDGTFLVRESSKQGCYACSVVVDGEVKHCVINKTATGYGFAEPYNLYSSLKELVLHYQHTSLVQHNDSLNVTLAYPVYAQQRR
Nature of the test: PI3Kδ kinase assay (ADP-Glo, Reaction Biology). It counts as biochemical. In short, it runs like this:
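Kinase in Tris-HCl 40 mM pH 7.5, MgCl2 20 mM, orthovanadate 3 mM, DTT 2 mM, 0.05% CHAPS, 1% DMSO, preincubated 10 min at room temperature with compound (about 0.5 nM–100 μM). ATP started a 30-min reaction at 30 °C. ADP-Glo luminescence converted to μM ADP via standard curve; IC50 from nonlinear regression.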

pIC50: −log10 of the molar value. Like-named read-outs stand apart in the source and are kept apart here. Some results are limits rather than exact numbers.

T1 sequence (Q00534 whole entry): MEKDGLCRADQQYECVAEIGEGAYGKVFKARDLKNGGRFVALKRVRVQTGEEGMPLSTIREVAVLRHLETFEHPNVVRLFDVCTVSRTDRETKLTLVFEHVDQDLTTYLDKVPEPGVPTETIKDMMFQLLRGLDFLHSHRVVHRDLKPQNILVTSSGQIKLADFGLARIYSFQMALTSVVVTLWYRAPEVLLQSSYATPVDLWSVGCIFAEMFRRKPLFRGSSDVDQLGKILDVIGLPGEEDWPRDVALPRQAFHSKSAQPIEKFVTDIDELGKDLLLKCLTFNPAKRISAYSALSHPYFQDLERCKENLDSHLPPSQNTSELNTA
T1 sequence (P24385 whole entry partner): as the sequence (P24385 whole entry partner) above

As to `CS(=O)(=O)N1CCC(Nc2ncc3cc(C#N)c(=O)n([C@H]4C[C@@H]5CC[C@H]4C5)c3n2)CC1` [Compound No. 387, 8-((1S,2S,4R)-bicyclo[2.2.1]heptan-2-yl)-2-(1-(methylsulfonyl)piperidin-4-ylamino)-7-oxo-7,8-dihydropyrido[2,3-d]pyrimidine-6-carbonitrile], the pIC50 at CDK6 was 7.77; at CDK4, 7.70; against CDK1 (cyclin B) it was 5.96; in test [1], 6.24; in test [2], 5.15; against CDK2 (cyclin A), 7.06.
In the case of `CS(=O)(=O)N1CCC(Nc2ncc3cc(C4CC4)c(=O)n(C4CCCC4)c3n2)CC1` [Compound No. 379, 8-cyclopentyl-6-cyclopropyl-2-((1-(methylsulfonyl)piperidin-4-yl)amino)pyrido[2,3-d]pyrimidin-7(8H)-one], the pIC50 is 7.17 on CDK6; 7.80 at CDK4; less than 5.44 at CDK1 (cyclin B) (read-out: CDK1/B IC50); 5.91 in test [1]; 5.33 in test [2]; 6.36 against CDK2 (cyclin A).
On to `N#Cc1cc2cnc(Nc3ccc4c(c3)CCNC4)nc2n(C23CC(C2)C3)c1=O` [Compound No. 370, 8-(bicyclo[1.1.1]pentan-1-yl)-7-oxo-2-((1,2,3,4-tetrahydroisoquinolin-6-yl)amino)-7,8-dihydropyrido[2,3-d]pyrimidine-6-carbonitrile], for which the pIC50 was 7.33 at CDK6; 6.91 at CDK4; 5.56 at CDK1 (cyclin B) (read-out: CDK1/B IC50); 6.35 in test [1]; 5.91 in test [2]; 6.62 at CDK2 (cyclin A).
Take `CN(C)CCN1CCc2cc(Nc3ncc4cc(C#N)c(=O)n(C5CCCC5)c4n3)ccc2C1` [Compound No. 63, 8-cyclopentyl-2-((2-(2-(dimethylamino)ethyl)-1,2,3,4-tetrahydroisoquinolin-6-yl)amino)-7-oxo-7,8-dihydropyrido[2,3-d]pyrimidine-6-carbonitrile]: the pIC50 at CDK6 was 8.40; at CDK4, 7.96; on CDK1 (cyclin B) (read-out: CDK1/B IC50), 6.18; in test [1] it was 6.58; in test [2], 5.84; against CDK2 (cyclin A), 6.72.
Regarding `N#Cc1cc2cnc(NC3CCN(S(=O)(=O)C(F)(F)F)CC3)nc2n(C2CCCC2)c1=O` [Compound No. 371, 8-cyclopentyl-7-oxo-2-((1-((trifluoromethyl)sulfonyl)piperidin-4-yl)amino)-7,8-dihydropyrido[2,3-d]pyrimidine-6-carbonitrile], the pIC50 was 7.60 at CDK6; 7.85 at CDK4; less than 5.30 on CDK1 (cyclin B) (read-out: CDK1/B IC50); 6.29 in test [1]; 5.58 in test [2]; 5.47 against CDK2 (cyclin A).
On to `Cn1ccc(S(=O)(=O)N2CCC(Nc3ncc4cc(C(F)F)c(=O)n([C@H]5C[C@@H]6CC[C@H]5C6)c4n3)CC2)n1` [Compound 395, 8-((1S,2S,4R)-bicyclo[2.2.1]heptan-2-yl)-6-(difluoromethyl)-2-((1-((1-methyl-1H-pyrazol-3-yl)sulfonyl)piperidin-4-yl)amino)pyrido[2,3-d]pyrimidin-7(8H)-one], for which the pIC50 is 7.96 on CDK6, 7.89 at CDK4, 7.18 on CDK1 (cyclin B) and 7.74 on CDK2 (cyclin A).
On the same counts, the results for `Cn1ccc(S(=O)(=O)N2CCC(Nc3ncc4cc(C(F)F)c(=O)n([C@@H]5C[C@H]6CC[C@@H]5C6)c4n3)CC2)n1` [Compound 396, 8-((1R,2R,4S)-bicyclo[2.2.1]heptan-2-yl)-6-(difluoromethyl)-2-((1-((1-methyl-1H-pyrazol-3-yl)sulfonyl)piperidin-4-yl)amino)pyrido[2,3-d]pyrimidin-7(8H)-one] are 8.15, 7.77, 7.00 and 7.85.
For `CN1CCC(n2cc(Nc3ncc4cc(C#N)c(=O)n(C5CCCC5)c4n3)cn2)CC1` [Compound No. 325, 8-cyclopentyl-2-((1-(1-methylpiperidin-4-yl)-1H-pyrazol-4-yl)amino)-7-oxo-7,8-dihydropyrido [2,3-d] pyrimidine-6-carbonitrile], the pIC50 is 7.44 at CDK6; 7.15 on CDK4; 6.35 in test [1]; 5.62 in test [2]; 6.42 against CDK2 (cyclin A); 7.66 against PI3Kδ kinase.
`COCCn1cc(Nc2ncc3cc(C#N)c(=O)n(C4CCCC4)c3n2)cn1` [Compound No. 104, 8-cyclopentyl-2-((1-(2-methoxyethyl)-1H-pyrazol-4-yl)amino)-7-oxo-7,8-dihydropyrido [2,3-d] pyrimidine-6-carbonitrile]: the pIC50 at CDK6 is 7.25; at CDK4, less than 6.74; in test [1], 5.99; in test [2] it was 5.60; against CDK2 (cyclin A), 6.85; on PI3Kδ kinase, 7.12.
As for `N#Cc1cc2cnc(Nc3nc(C4CCNCC4)cs3)nc2n(C2CCCC2)c1=O` [Compound No. 327, 8-cyclopentyl-7-oxo-2-((4-(piperidin-4-yl)thiazol-2-yl)amino)-7,8-dihydropyrido [2,3-d] pyrimidine-6-carbonitrile], the pIC50 on CDK6 is 8.05; on CDK4, 7.59; on CDK1 (cyclin B) (read-out: CDK1/B IC50) it was less than 5.30; in test [1], 6.19; in test [2] it was 5.77; against PI3Kδ kinase, 5.25.
With `CS(=O)(=O)N1CCC(Nc2ncc3cc(C(F)F)c(=O)n([C@H]4C[C@H]5C[C@H]5C4)c3n2)CC1` [Compound 196, 8-((1R,3R,5S)-bicyclo[3.1.0]hexan-3-yl)-6-(difluoromethyl)-2-((1-(methylsulfonyl)piperidin-4-yl)amino)pyrido[2,3-d]pyrimidin-7(8H)-one], the pIC50 on CDK6 is 8.35; on CDK4, 8.60; on CDK1 (cyclin B) it was 7.51; at CDK2 (cyclin A), 8.30.
Take `CN(C)CCn1cc(Nc2ncc3cc(C#N)c(=O)n(C4CCCC4)c3n2)cn1` [Compound No. 105, 8-cyclopentyl-2-((1-(2-(dimethylamino)ethyl)-1H-pyrazol-4-yl)amino)-7-oxo-7,8-dihydropyrido[2,3-d]pyrimidine-6-carbonitrile]: the pIC50 at CDK6 is 7.47; on CDK4, 7.16; on CDK1 (cyclin B) (read-out: CDK1/B IC50) it was less than 5.47; in test [1], 6.17; in test [2], 5.42; at PI3Kδ kinase it was 6.34.
As for `CN(C)CC(=O)N1CCC(n2cc(Nc3ncc4cc(C#N)c(=O)n(C5CCCC5)c4n3)cn2)CC1` [Compound No. 202, 8-cyclopentyl-2-((1-(1-(dimethylglycyl)piperidin-4-yl)-1H-pyrazol-4-yl)amino)-7-oxo-7,8-dihydropyrido[2,3-d]pyrimidine-6-carbonitrile], the pIC50 at CDK6 was 7.59; at CDK4 it was 7.24; in test [1] it was 6.08; in test [2] it was 5.42; against CDK2 (cyclin A), 6.81; against PI3Kδ kinase, 7.41.
For the molecule `CS(=O)(=O)N1CCC(Nc2ncc3cc(C(F)F)c(=O)n(C4CC5CCC4C5)c3n2)CC1` (racemic) [Compound 401, 8-((1S,2S,4R)-bicyclo[2.2.1]heptan-2-yl)-6-(difluoromethyl)-2-((1-(methylsulfonyl)piperidin-4-yl)amino)pyrido[2,3-d]pyrimidin-7(8H)-one], the pIC50 is 8.35 at CDK6, 8.40 at CDK4, 7.06 on CDK1 (cyclin B) (read-out: CDK1/B IC50) and 7.72 on CDK2 (cyclin A).

Source of the values: US20220273659A1, “HETEROCYCLIC COMPOUNDS AS KINASE INHIBITORS” (NUVATION BIO INC., priority 2019, published 2022).
